According to US20100076015A1, “Aminopyridine Derivatives” (VANTIA LIMITED, priority 2008, published 2010):

Experiments:
Format in all cases: biochemical
[1] = molecular target: trypsin; assay: Enzyme selectivity: trypsin (chromogenic substrate S-2222); conditions: human enzyme, chromogenic substrate S-2222, 37° C.
Procedure: (§1) Determination of Enzyme Selectivity
(§2) Selected compounds were further screened for inhibitory activity against other trypsin-like serine proteases using the appropriate enzyme and chromogenic substrate (Chromogenix AB). The activity against the following human enzymes was tested (substrate in brackets):—plasma kallikrein (S-2302), thrombin (S-2238), plasmin (S-2390) and trypsin (S-2222). The enzyme was incubated at 37° C. with the chromogenic substrate. Residual enzyme activity (initial rate of reaction) was determined by measuring the change in optical absorbance at 405 nm.

[2] = molecular target: thrombin (Homo sapiens, UniProt P00734); assay: Enzyme selectivity: thrombin (chromogenic substrate S-2238); conditions: chromogenic substrate S-2238, 37° C.
Procedure: as §1, §2

[3] = molecular target: T1, Human KLK1 (Homo sapiens, UniProt P06870); assay: Determination of the IC50 for KLK1 (fluorogenic substrate H-DVal-Leu-Arg-AFC); conditions: 37° C.
T1 construct: purchased Callbiochem (Calbiochem)
T1 sequence (P06870 25-262): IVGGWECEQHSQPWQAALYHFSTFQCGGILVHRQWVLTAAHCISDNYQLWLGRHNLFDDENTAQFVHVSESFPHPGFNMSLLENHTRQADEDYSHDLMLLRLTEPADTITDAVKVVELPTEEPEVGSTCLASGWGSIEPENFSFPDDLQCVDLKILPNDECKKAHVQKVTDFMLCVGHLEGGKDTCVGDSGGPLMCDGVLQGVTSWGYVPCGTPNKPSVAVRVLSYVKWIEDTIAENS
Outline: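 Human KLK1 incubated at 37° C with fluorogenic substrate H-DVal-Leu-Arg-AFC and a range of test compound concentrations. Residual activity taken as initial reaction rate from absorbance change at 410 nm; IC50 derived from these rates.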

[4] = molecular target: plasma kallikrein (Homo sapiens, UniProt P03952); assay: Enzyme selectivity: plasma kallikrein (chromogenic substrate S-2302); conditions: chromogenic substrate S-2302, 37° C.
plasma kallikrein, sequence (P03952 20-638): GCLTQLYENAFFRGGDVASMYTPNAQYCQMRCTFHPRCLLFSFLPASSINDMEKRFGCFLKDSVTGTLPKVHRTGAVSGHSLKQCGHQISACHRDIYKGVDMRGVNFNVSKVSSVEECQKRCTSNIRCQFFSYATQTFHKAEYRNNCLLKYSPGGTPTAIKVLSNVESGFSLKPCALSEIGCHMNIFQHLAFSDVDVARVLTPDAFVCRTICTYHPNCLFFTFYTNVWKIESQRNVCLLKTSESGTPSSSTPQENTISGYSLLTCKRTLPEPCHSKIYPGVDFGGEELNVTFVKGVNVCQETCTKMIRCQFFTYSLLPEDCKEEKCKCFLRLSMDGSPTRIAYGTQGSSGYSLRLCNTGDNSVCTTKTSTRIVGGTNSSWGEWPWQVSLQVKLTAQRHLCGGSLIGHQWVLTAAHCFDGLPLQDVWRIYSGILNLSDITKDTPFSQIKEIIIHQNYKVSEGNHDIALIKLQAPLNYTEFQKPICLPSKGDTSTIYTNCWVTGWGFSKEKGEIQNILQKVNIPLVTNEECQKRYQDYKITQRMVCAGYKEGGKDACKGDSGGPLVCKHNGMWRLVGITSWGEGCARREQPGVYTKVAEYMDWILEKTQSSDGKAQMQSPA
Procedure: as §1, §2

[5] = molecular target: plasmin (Homo sapiens, UniProt P00747); assay: Enzyme selectivity: plasmin (chromogenic substrate S-2390); conditions: chromogenic substrate S-2390, 37° C.
plasmin, sequence (P00747 581-810 limits assumed): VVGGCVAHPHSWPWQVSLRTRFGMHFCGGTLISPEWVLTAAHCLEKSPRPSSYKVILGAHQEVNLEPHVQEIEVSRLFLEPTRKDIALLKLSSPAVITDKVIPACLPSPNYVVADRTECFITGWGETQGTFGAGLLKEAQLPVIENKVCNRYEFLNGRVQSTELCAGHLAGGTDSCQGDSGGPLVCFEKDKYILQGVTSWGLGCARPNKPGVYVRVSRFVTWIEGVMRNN
plasmin, sequence (P00747 97-580 partner limits assumed): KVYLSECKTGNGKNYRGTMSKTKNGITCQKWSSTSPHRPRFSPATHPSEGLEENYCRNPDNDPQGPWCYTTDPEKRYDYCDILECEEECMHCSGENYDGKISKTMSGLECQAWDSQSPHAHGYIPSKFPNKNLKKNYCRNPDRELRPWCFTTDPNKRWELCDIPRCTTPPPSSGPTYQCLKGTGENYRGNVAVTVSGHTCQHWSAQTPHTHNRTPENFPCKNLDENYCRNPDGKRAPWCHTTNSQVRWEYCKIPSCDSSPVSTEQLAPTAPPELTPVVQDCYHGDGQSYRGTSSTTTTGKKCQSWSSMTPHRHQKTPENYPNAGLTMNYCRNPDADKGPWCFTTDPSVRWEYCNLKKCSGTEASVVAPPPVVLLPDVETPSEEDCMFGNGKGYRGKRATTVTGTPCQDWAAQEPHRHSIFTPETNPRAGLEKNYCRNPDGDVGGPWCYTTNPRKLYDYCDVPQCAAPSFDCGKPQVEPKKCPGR
Procedure: as §1, §2

| IC50 [1] [µM] | IC50 [2] [µM] | IC50 [3] [µM] | IC50 [4] [µM] | IC50 [5] [µM] | Compound |
| --- | --- | --- | --- | --- | --- |
| > 10 | > 10 | 0.0044 | > 10 | > 10 | Cc1cc(C)c(C(=O)N[C@@H](Cc2ccc(F)cc2)C(=O)NCc2ccc(N)nc2)[nH]1 [Example 242, 3,5-Dimethyl-1H-pyrrole-2-carboxylic acid [(S)-1-[(6-amino-pyridin-3-ylmethyl)-carbamoyl]-2-(4-fluoro-phenyl)-ethyl]-amide] |
| > 10 | > 10 | 0.0102 | > 10 | > 10 | CCC(C)[C@@H](N)C(=O)N[C@@H](Cc1cccc(F)c1)C(=O)NCc1ccc(N)nc1 (stereo partly drawn) [Example 29, (R)-2-Amino-3-methyl-pentanoic acid [(S)-1-[(6-amino-pyridin-3-ylmethyl)-carbamoyl]-2-(3-fluoro-phenyl)-ethyl]-amide] |
| > 10 | > 10 | 0.0025 | > 10 | > 10 | CCC(C)[C@@H](N)C(=O)N[C@@H](Cc1cccc(C)c1)C(=O)NCc1ccc(N)nc1 (stereo partly drawn) [Example 27, (R)-2-Amino-3-methyl-pentanoic acid {(S)-1-[(6-amino-pyridin-3-ylmethyl)-carbamoyl]-2-m-tolyl-ethyl}-amide] |
| > 10 | > 10 | 0.0021 | > 10 | > 10 | Cc1cc(C)c(C(=O)N[C@@H](Cc2ccc(Cl)c(Cl)c2)C(=O)NCc2ccc(N)nc2)[nH]1 [Example 233, 3,5-Dimethyl-1H-pyrrole-2-carboxylic acid [(S)-1-[(6-amino-pyridin-3-ylmethyl)-carbamoyl]-2-(3,4-dichloro-phenyl)-ethyl]-amide] |
| > 10 | > 10 | 0.0034 | > 10 | > 10 | Cc1cc(C)c(C(=O)N[C@@H](Cc2ccc(F)c(F)c2)C(=O)NCc2ccc(N)nc2)[nH]1 [Example 243, 3,5-Dimethyl-1H-pyrrole-2-carboxylic acid [(S)-1-[(6-amino-pyridin-3-ylmethyl)-carbamoyl]-2-(3,4-difluoro-phenyl)-ethyl]-amide] |
| > 10 | > 10 | 0.0049 | > 10 | > 10 | CCC(C)[C@H](N)C(=O)N[C@@H](C(=O)NCc1ccc(N)nc1)C(C1CCCCC1)C1CCCCC1 (stereo partly drawn) [Example 11, (S)-2-Amino-3-methyl-pentanoic acid [(R)-1-[(6-amino-pyridin-3-ylmethyl)-carbamoyl]-2,2-dicyclohexyl-ethyl]-amide] |
| > 10 | > 10 | 0.0098 | > 10 | > 10 | Nc1ccc(CNC(=O)[C@H](CC2CCCC3CCCCC32)NC(=O)[C@H](N)Cc2ccc(Cl)cc2)cn1 (stereo partly drawn) [Example 13, (R)-2-Amino-N-[(S)-1-[(6-amino-pyridin-3-ylmethyl)carbamoyl]-2-(decahydro-naphthalen-1-yl)-ethyl]-3-(4-chloro-phenyl)-propionamide] |
| > 10 | > 10 | 0.0043 | > 10 | > 10 | CCC(C)[C@@H](N)C(=O)N[C@@H](CC1CCCCC1)C(=O)NCc1ccc(N)nc1 (stereo partly drawn) [Example 20, (R)-2-Amino-3-methyl-pentanoic acid {(S)-1-[(6-amino-pyridin-3-ylmethyl)-carbamoyl]-2-cyclohexyl-ethyl}-amide] |
| > 10 | > 10 | 0.00056 | > 10 | > 10 | Nc1ccc(CNC(=O)[C@H](Cc2ccc(Cl)c(Cl)c2)NC(=O)[C@H](N)Cc2ccc(Cl)cc2)cn1 [Example 59, (R)-2-Amino-N-[(S)-1-[(6-amino-pyridin-3-ylmethyl)-carbamoyl]-2-(3,4-dichloro-phenyl)-ethyl]-3-(4-chloro-phenyl)-propionamide] |
